Here are results for three compounds from patent publication EP1693059A1, “Use of rocaglamide derivatives as NF-AT-specific inhibitors for the treatment of certain inflammatory diseases” (Deutsches Krebsforschungszentrum, priority 2005, dated 2006).

The subject of experiment [1] is NF-kappa B. Kind of experiment: NF-kappa B consensus luciferase reporter in Jurkat T cells. The class given is cell-based, human. The conditions noted are these: for inhibition of NF-kappa B-dependent transcription: doses higher than 150 nM, 480 min. An excerpt: Luciferase reporter construct containing the human IL-2 (-300/+47), the human IL-4 (-269/+11) promoter and the multiple IL-4 NF-AT (P1) luciferase constructs were generated previously (Ehret et al., 2001; Li-Weber et al., 1998). The multiple copies of the AP-1 binding site from SV40 enhancer ([…]), the NF-kappa B consensus sequence ([…]) and the human IL-2 NF-AT (-282/-250) element ([…]) were constructed by ligation of the DNA sequence into the multiple-cloning site of pTATA-Luc vector. The luciferase reporter construct containing the human IFN-γ (-854/+7) promoter was construct by ligation of the IFN-γ promoter sequence generated by PCR into the luciferase reporter vector. All constructs were confirmed by sequencing analysis. The pLuc-Bax promoter reporter plasmid was kindly provided by M. L. Schmitz (Department for Chemistry and Biochemistry, University of Bern, Switzerland).
Jurkat T cells were transfected by eleclroporation as previously described (Li-Weber et al., 1998). After overnight recovering, the cells were divided and treated with different doses of rocaglamides and than further cultured in the absence or presence of PMA (10 ng/ml) and ionomycin (0.5 µM) for 8 h. Luciferase activity was determined in 10 µl of cell extract using the luciferase assay substrate (Promega Corp., Heidelberg, Germany) with a Duolumat LB9507 luminometer (Berthold, Bad Wildbad, Germany).
Characteristically, NF-AT family proteins act synergistically with AP-1 (Fos/Jun) proteins to activate genes containing composite NF-AT and AP-1 binding sites (Macian et al., 2001). Many cytokine genes, including IL-2, IL-4, and IFN-γ contain NF-AT/AP-1 composite sites in their promoter/enhancer region (Rao et al., 1997). To investigate whether inhibition of NF-AT and c-Jun expression by rocaglamides would lead to suppression of their transcriptional activities, we performed transfection studies with luciferase reporter constructs containing multiple copies of the NF-AT-binding elements derived from the IL-4 and IL-2 promoter and the consensus binding sequences for AP-1 and NF-kappa B, respectively. […]

For a further experiment, the system named is JNK. Kind of experiment: Immunoblot of phosphorylated JNK in Jurkat T cells. The class given is cell-based, human. The conditions noted are these: with PMA/ionomycin. On the technique in general: In western blotting, separated proteins are transferred to a membrane and probed.
The next experiment has as its system NF-kappa B subunit p65. Kind of experiment: Immunoblot of nuclear NF-kappa B subunit p65 in activated Jurkat T cells. Format: cell-based, human. The conditions noted are these: PMA/ionomycin 2 h. As for the experimental part:
Many inflammatory cytokine genes are transcriptionally activated by the inducible, ubiquitous transcription factors NF-AT, AP-1 and NF-kappa B (Tsai et al., 1996; Sica et al., 1997; Falvo et al., 2000; Macian et aL, 2001; Kaminuma et al., 2002; Li-Weber & Krammer, 2003). Therefore, we first examined the effect of the rocagtamide derivatives on nuclear expression levels of NF-AT, the AP-1 subunit c-Jun, and the NF-kappa B subunit p65 in activated T cells. Nuclear proteins were prepared from Jurkat T cells, stimulated by PMA/iouomycin for 2 h in the presence or absence of different doses of rocaglamides. […] CsA is a well known immunosuppressive reagent that targets NF-AT activity.

The subject of experiment [2] is NF-kappa B. The following applies: Baumann et al., 2002; cited from earlier work.

Protocol for JNK: T cells were lysed in ice-cold RIPA buffer (50 mM Tris-HCl, pH 8.0, 120 mM NaCI, 1% NP-40, 0.5% Desoxycholate, 1 mM PMSF, 25 mM NaF, 1% SDS, 1 mM DTT, 0.2 mM Na3V04 and 20 µl/ml protease inhibitors) for 30 min. […] Equal amounts of proteins were separated on 10% SDS-PAGE gels, transferred onto Hybond-ECL nitrocellulose membrane (Amersham Biosciences, Little Chalfon, UK). The membrane was blocked with 5% milk powder in PBS/0.1% Tween 20 for 1 h, washed with the same solution and incubated with antibodies at 37°C for 1 h or overnight at 4 °C. The blots were washed with PBS/Tween and developed with HRP-coupled antibodies followed by enhanced Chemiluminescence Reagent Plus (PerkinElmer Life Sciences, Boston, MA). […] For stripping, membranes were incubated for 30 min at 56 °C in a buffer containing 62.5 mM Tris-HCl, pH 6.7, 2% SDS and 100 mM β-mercaptoethanol.
To investigate the molecular mechanisms of rocaglamides-mediated suppression of NF-AT activity, we examined the effect of rocaglamides on activities of MAP kinases.

With `COC(=O)[C@H]1[C@@H](OC=O)[C@@]2(O)c3c(OC)cc(OC)cc3O[C@@]2(c2ccc3c(c2)OCO3)[C@@H]1c1ccccc1` [Roc-3], the “inhibition of NF-kappa B-dependent transcription” value with NF-kappa B [1] is reported as “about 20%”. In the experiment on JNK, the “expression of phosphor-JNK (p-JNK)” value is reported as “stronger inducers of p-JNK than Roc-2”.
Take `COc1ccc([C@@]23Oc4cc(OC)cc(OC)c4[C@]2(O)[C@H](OC(C)=O)[C@H](C(=O)N(C)C)[C@H]3c2ccccc2)cc1` [Roc-2]: the “inhibition of NF-kappa B-dependent transcription” value with NF-kappa B [1] is reported as “about 20%”. Moreover, the “expression of phosphor-JNK (p-JNK)” value in the experiment with JNK was “Roc-1 and 3 are stronger inducers of p-JNK than Roc-2”.
For the compound `COc1ccc([C@@]23Oc4cc(OC)cc(OC)c4[C@]2(O)[C@H](O)[C@H](C(=O)N(C)C)[C@H]3c2ccccc2)cc1` [Roc-1], the “nuclear levels of p65” value in the experiment on NF-kappa B subunit p65 is “slightly elevated”. Besides, in the experiment on NF-kappa B [1] (concentrations up to 100 nM), the “NF-kappa B activity” value is recorded as “subtle increase”. The “expression of phosphor-JNK (p-JNK)” value in the experiment on JNK is “stronger inducers of p-JNK than Roc-2”. Moreover, the “NF-kappa B activity induced by TNF-α or PMA” value in the experiment on NF-kappa B [2] was “inhibit NF-kappa B activity”.
